Laboratory results published in patent US20240148664A1, “LIPID AND COMPOSITION” (SOGO PHARMACEUTICAL CO., LTD., priority 2021, published 2024).

Key:
Assay type in all cases: cell-based
HEK293T cells = assay: Evaluation of protein expression effect (luciferase luminescence), Cell experiment 2; conditions: lipid nanoparticle containing mRNA, 100 ng mRNA/20 μL per well, 24 hours, amount of luminescence as index
Protocol: (§1) For lipids (Ia), (Ib), and (Ie) of Examples 1, 2, and 5, a cell experiment was carried out by using HEK293T cells and NIH3T3 cells in order to evaluate lipid nanoparticles encapsulating an mRNA. By transfecting the cells with lipid nanoparticles and measuring the amount of a predetermined protein produced, the performance of the lipid nanoparticles used can be evaluated. Hereinafter, the procedure of the cell experiment will be shown.
(§2) A. Seeding of Cells • (i) A liquid medium (DMEM High glucose, FBS+, P/S+) was temperature-controlled in an incubator set at 37° C. • (ii) A cryotube containing cells was taken out from a −80° C. freezer and thawed at once in the incubator set at 37° C. • (iii) A test tube was subjected to a centrifuge to precipitate the cells. • (iv) The supernatant was aspirated, and the liquid medium was added and gently tapped to disperse the cells. • (v) A small amount of the cells-dispersed liquid medium was collected, and the number of cells was observed and counted under a microscope. • (vi) The cells were seeded in three 24-well black plates such that the number of cells was 1×10^4 cells per well. The 24-well black plates were placed in an incubator, and the cells were cultured for 24 hours under conditions of 37° C. and 5% CO2.
(§3) B. Transfection • (i) A lipid nanoparticle-containing solution including an mRNA was concentrated such that the mRNA concentration was 100 ng/20 μL (=0.005 μg/μL). • (ii) A liquid medium (DMEM High glucose, FBS-, P/S-) and FBS were warmed to 37° C., required amounts of the liquid medium and FBS were mixed (FBS concentration of liquid medium at this time: 12.5%), and the prepared liquid medium was filter-sterilized through a 0.22 μm filter. • (iii) The liquid medium supernatant in the 24-well black plates in which the cells were cultured was aspirated and 80 μL per well of the prepared liquid medium was added. • (iv) 20 μL per well of RFW and the lipid nanoparticle-containing solution adjusted to the above concentration was added. • (v) The 24-well black plates were placed in an incubator, and the cells were cultured for 24 hours under conditions of 37° C. and 5% CO2.
(§4) C. Evaluation of Protein Expression Effect (Detection of Gaussia Luciferase (GLuc))
(§5) Evaluation of the protein expression effect was carried out by using Gaussia Luciferase Assay Kit manufactured by Thermo Scientific. • (i) The cells cultured in B. (v) above were taken out from the incubator and allowed to stand at room temperature. • (ii) 20 μL of the supernatant in the plates was collected and added to a fresh 96-well white plate. • (iii) 100× Coelenterazine and Gaussia Glow Assay Buffer attached to the kit were returned to room temperature and mixed at 1:100 to prepare a solution. The prepared solution was added to the supernatant at 50 μL per well by using a multipipette. • (iv) The plate was shielded from light with aluminum foil, allowed to stand for 10 minutes, and then measured for the amount of luminescence with a plate reader (manufactured by TECAN, Infinite M200) (measurement time: 2 seconds), and the protein expression level was calculated by using the resulting amount of luminescence as an index.

NIH3T3 cells = assay: as above; conditions: lipid nanoparticle containing mRNA, 100 ng mRNA/20 μL per well, 24 hours, amount of luminescence as index
Protocol: as §1, §2, §3, §4, §5

[1] = test system: HT1080-EGFP (human/fibrosarcoma) cells; assay: Evaluation of toxicity: CCK-8 assay; conditions: lipid nanoparticle containing siRNA; absorbance relative to control cells without lipid nanoparticle set at 1.00
Protocol: A. Provision of Cells • (i) A liquid medium (DMEM/Ham's F12, FBS+, P/S+) (FBS: fetal bovine serum, P/S: antibiotic) was taken out from a refrigerator and temperature-controlled in an incubator set at 37° C. • (ii) A cryotube containing the cells was taken out from a −80° C. freezer and thawed at once in an incubator set at 37° C. • (iii) A stock solution of the thawed cells was collected in a capped test tube. • (iv) The tube containing the cells was washed with the liquid medium, and the wash was also collected in the test tube. • (v) The tube was subjected to a centrifuge to precipitate the cells. • (vi) The supernatant was aspirated, and the liquid medium was added and gently tapped to disperse the cells. • (vii) A small amount of the cells-dispersed liquid medium was collected, and the number of cells was observed and counted under a microscope. • (viii) The cells were seeded in a 24-well plate such that the number of cells was 2×10^4 cells per well. For the plate for an LDH assay described later, the cells were seeded in a 96-well plate such that the number of cells was 4×10^3 cells per well. • (ix) The 24-well plate or the 96-well plate was placed in an incubator, and the cells were cultured for 24 hours under conditions of 37° C. and 5% CO2.
The produced lipid nanoparticles were introduced into cells. • (i) Fetal bovine serum (FBS) was added to a liquid medium (FBS-, P/S-) temperature-controlled as in (i) of A above, in such a way as to reach 10%. • (ii) A 24-well plate was taken out from an incubator, and the liquid medium supernatant in the 24-well plate was aspirated and washed with phosphate buffered saline (PBS). • (iii) 400 μL of the liquid medium produced in (i) above was added to the washed 24-well plate. In addition, 100 μL of an LNP solution having an adjusted concentration was added. • (iv) The 24-well plate was placed in the incubator, and the cells were cultured (for 24 hours). • (v) After 24 hours, the liquid medium supernatant in the 24-well plate was aspirated, and 500 μL of a liquid medium containing 10% FBS (FBS+/P/S+) was added. • (vi) The 24-well plate was placed in the incubator, and the cells were cultured for 24 hours under conditions of 37° C. and 5% CO2.
For Examples 1 to 9, a CCK-8 assay or an LDH assay was carried out to measure the metabolic activity of viable cells and relatively quantify the number of surviving cells to evaluate the toxicity of lipid nanoparticles.
(a) CCK-8 Assay • (i) Fetal bovine serum (FBS) and a viable cell counting kit (manufactured by DOJINDO LABORATORIES, Cell Count Kit-8) was added to a liquid medium (FBS-, P/S-) temperature-controlled as in (i) of A above, such that FBS was 10% and the kit was 10%. • (ii) A 24-well plate was taken out from an incubator. The liquid medium was removed, and 315 μL of the liquid medium containing the viable cell counting kit produced in (i) above was added. • (iii) The liquid medium was aged for 1 hour in the incubator. • (iv) The 24-well plate was taken out, and the absorbance was measured under conditions of a measurement wavelength of 450 nm and a target wavelength of 630 nm with a plate reader (manufactured by TECAN, Infinite M200). The absorbance was calculated with the absorbance of control cells to which no lipid nanoparticle was added set at 1.00. When the obtained value was 0.80 or more and 1.00 or less, a rating of double-circle (excellent) was given, when the obtained value was 0.50 or more and less than 0.80, a rating of circle (good) was given, when the obtained value was 0.20 or more and less than 0.50, a rating of triangle (fair) was given, and when the obtained value was less than 0.20, a rating of X-mark (poor) was given.

## CCCCCCCC/C=C\CCCCCCCCC(CCCCCCC/C=C\CCCCCCCC)OC(=O)C(CCC(=O)O)NC(=O)C(N)CCCNC(=N)N (stereo not drawn) [Example 2, 4-(2-amino-5-guanidinopentanamido)-5-(((9Z,27Z)-hexatriaconta-9,27-dien-18-yl)oxy)-5-oxopentanoic acid]
HEK293T cells
  Protein expression level: 800,000
NIH3T3 cells
  Protein expression level: 25,000
[1]
  CCK Assay: ⊚ (When the obtained value was 0.80 or more and 1.00 or less, a rating of double-circle (excellent) was given)

## CCCCCCCC/C=C\CCCCCCCCC(CCCCCCC/C=C\CCCCCCCC)OC(=O)C(CO)NC(=O)C(N)CCCNC(=N)N [Example 4, (9Z,27Z)-hexatriaconta-9,27-dien-18-yl (2S)-2-((S)-2-amino-5-guanidinopentanamido)-3-hydroxypropionate]
[1]
  CCK Assay: ◯ (when the obtained value was 0.50 or more and less than 0.80, a rating of circle (good) was given)

## CCCCCCCC/C=C\CCCCCCCCC(CCCCCCC/C=C\CCCCCCCC)OC(=O)C(NC(=O)C(N)CCCNC(=N)N)C(C)O [Example 5, (9Z,27Z)-hexatriaconta-9,27-dien-18-yl (2S)-2-((S)-2-amino-5-guanidinopentanamido)-3-hydroxybutanoate]
HEK293T cells
  Protein expression level: 100,000
NIH3T3 cells
  Protein expression level: 60,000

## CCCCCCCC/C=C\CCCCCCCCC(CCCCCCC/C=C\CCCCCCCC)OC(=O)C(CC(=O)O)NC(=O)C(N)CCCNC(=N)N (stereo not drawn) [Example 1, 3-(2-amino-5-guanidinopentanamido)-4-(((9Z,27Z)-hexatriaconta-9,27-dien-18-yl)oxy)-4-oxobutanoic acid]
HEK293T cells
  Protein expression level: 100,000
NIH3T3 cells
  Protein expression level: 5,000
[1]
  CCK Assay: ⊚ (When the obtained value was 0.80 or more and 1.00 or less, a rating of double-circle (excellent) was given)
